Assay results as given in ChEMBL document CHEMBL6109128, “Copper-KRAS-COX2 Axis: A Therapeutic Vulnerability in Pancreatic Cancer” (J Med Chem, 2025).
Activity calls are given as the source filed them. The calls are words filed in the database; no cut-off is given here.

How the values were obtained:
MIA PaCa-2 [1] = experiment: Cytotoxicity against human MIA PaCa-2 cells by MTT assay; assay type: functional, cell-based
[2] = Metabolic stability in mouse liver microsome assessed as half life measured up to 60 mins by LC-MS/MS analysis; assay type: ADME; conditions: liver microsomes
[3] = Metabolic stability in human liver microsome assessed as half life measured up to 60 mins by LC-MS/MS analysis; assay type: ADME; conditions: liver microsomes
[4] = Toxicity in C57BL/6 mouse assessed as body weight loss at 20 to 40 mg/kg, ip administered for 28 days; assay type: organism-based; conditions: in vivo, 672 h, dose 20-40 mg/kg, time 28 day
[5] = Cytotoxicity against mouse KPC2 cells by MTT assay; assay type: functional, cell-based
Panc02 = experiment: Cytotoxicity against mouse Panc02 cells by MTT assay; assay type: functional, cell-based
BXPC-3 = experiment: Cytotoxicity against human BXPC-3 cells by MTT assay; assay type: functional, cell-based
PANC-1 = experiment: Cytotoxicity against human PANC-1 cells by MTT assay; assay type: functional, cell-based
SU.86.86 = experiment: Cytotoxicity against human SU-86-86 cells by MTT assay; assay type: functional, cell-based
HCT-116 = experiment: Cytotoxicity against human HCT-116 cells assessed as cell death up to 1 uM incubated for 6 days in presence of NAC; assay type: functional, cell-based; conditions: time 6.0 day
[6] = Drug metabolism in mouse plasma assessed as 5-(5-((6-fluoroquinolin-8-yl)carbamoyl)pyrazin-2-yl)-2-methyl-2,5-diazabicyclo[2.2.1]heptane 2-oxide metabolite formation by measuring Retention time measured after 1 hr by LC-MS/MS analysis; assay type: ADME, cell-free
[7] = Drug metabolism in mouse plasma assessed as 5-(5-methyl-2,5-diazabicyclo[2.2.1]hept-3-en-2-yl)pyrazine-2-carbaldehyde metabolite formation by measuring Retention time measured after 1 hr by LC-MS/MS analysis; assay type: ADME, cell-free
[8] = Drug metabolism in mouse plasma assessed as 6-fluoroquinolin-8-amine metabolite formation by measuring Retention time measured after 1 hr by LC-MS/MS analysis; assay type: ADME, cell-free
[9] = Drug metabolism in mouse plasma assessed as 5-(2,5-diazabicyclo[2.2.1]heptan-2-yl)-N-(6-fluoroquinolin-8-yl)pyrazine-2-carboxamide metabolite formation by measuring Retention time measured after 1 hr by LC-MS/MS analysis; assay type: ADME, cell-free
[10] = Drug metabolism in mouse plasma assessed as retention time measured after 1 hr by LC-MS/MS analysis; assay type: ADME, cell-free
[11] = Drug metabolism in mouse plasma assessed as 6-fluoro-8-isocyanatoquinoline metabolite formation by measuring Retention time measured after 1 hr by LC-MS/MS analysis; assay type: ADME, cell-free
MIA PaCa-2 [12] = experiment: Cytotoxicity against human MIA PaCa-2 cells assessed as cell death up to 0.1 uM incubated for 6 days in presence of NAC; assay type: functional, cell-based; conditions: time 6.0 day

Structure (SMILES) | IC50 (MIA PaCa-2 [1]) | further results
C[C@@H]1CNCCN1c1cnc(C(=O)Nc2cc(F)cc3cccnc23)cn1 | 0.4 µM | –
Cc1cc(NC(=O)c2cnc(N3CCN(S(C)(=O)=O)CC3)cn2)c2ncccc2c1 | 1 µM | –
O=C(Nc1cc(F)cc2cccnc12)c1cnc(N2CCC(O)C2)cn1 (configuration not stated) | 1 µM | –
CN1CNC(=O)C12CCN(c1cnc(C(=O)Nc3cc(F)cc4cccnc34)cn1)CC2 | 2.9 µM | –
Cc1cc(NC(=O)CNCCN2CCN(C)CC2)c2ncccc2c1 | > 30 µM | –
O=C(Nc1cc(F)cc2cccnc12)c1cnc(N2CC3CC2CO3)cn1 (configuration not stated) | 0.9 µM | –
NC1CCC2(CC1)CN(c1cnc(C(=O)Nc3cc(F)cc4cccnc34)cn1)C2 | 4.7 µM | –
O=C(Nc1cc(F)cc2cccnc12)c1cnc(N2CCN3CCCC3C2)cn1 (configuration not stated) | 1.7 µM | –
O=C(Nc1cc(F)cc2cccnc12)c1cnc(N2CCNCC2)cn1 | 0.4 µM | half-life [2]: 1.8 min; half-life [3]: > 60 min
O=C(Nc1cccc2ccccc12)c1cnc(N2CCNCC2)cn1 | > 30 µM | –
CC1(N)CN(c2cnc(C(=O)Nc3cc(F)cc4cccnc34)cn2)C1 | 2.1 µM | –
Cc1cc(NC(=O)c2cnc(N3CCN(C(=O)C4CC4)CC3)cn2)c2ncccc2c1 | 1.2 µM | –
CN1CCN(c2cnc(C(=O)Nc3cccc4ccccc34)cn2)CC1 | > 30 µM | –
C=CC(=O)N1CCN(c2cnc(C(=O)Nc3cc(C)cc4cccnc34)cn2)CC1 | 0.9 µM | half-life [2]: 3 min
O=C(Nc1cc(F)cc2cccnc12)c1cnc(N2C[C@@H](O)CC2=O)cn1 | 4.7 µM | –
NC1C2CCC1CN(c1cnc(C(=O)Nc3cc(F)cc4cccnc34)cn1)C2 (configuration not stated) | 0.8 µM | half-life [2]: > 60 min; Activity [4]: Non-toxic; half-life [3]: > 60 min
Cc1cc(NCc2cnc(N3CCNCC3)cn2)c2ncccc2c1 | 17.6 µM | –
N[C@@H]1CN(c2cnc(C(=O)Nc3cc(F)cc4cccnc34)cn2)CC12COC2 | 11.6 µM | –
Cc1cc(C(=O)Nc2ccc(N3CCN(C)CC3)nc2)c2ncccc2c1 | 21.5 µM | –
C[C@@H]1CN(c2cnc(C(=O)Nc3cc(F)cc4cccnc34)cn2)C[C@H](C)N1 | 0.3 µM | –
NC1CCCN(c2cnc(C(=O)Nc3cc(F)cc4cccnc34)cn2)C1 (configuration not stated) | 1.8 µM | –
CS(=O)(=O)N1CCN(c2cnc(C(=O)Nc3cc(F)cc4cccnc34)cn2)CC1 | 3.3 µM | –
O=C(Nc1cc(F)cc2cccnc12)c1cnc(N2CC3C(C2)C3(F)F)cn1 (configuration not stated) | 5.4 µM | –
O=C(Nc1cc(F)cc2cccnc12)c1cnc(N2CC3CC2CN3)cn1 (configuration not stated) | 9.4 µM | –
O=C(Nc1cc(F)cc2cccnc12)c1cnc(N2CCn3cnnc3C2)cn1 | > 30 µM | –
CCN(CC)C(=S)SSC(=S)N(CC)CC [DISULFIRAM] | 0.1 µM | IC50 [5]: 0.2 µM; IC50 (Panc02): 0.1 µM; IC50 (BXPC-3): 0.3 µM; IC50 (PANC-1): 0.1 µM; IC50 (SU.86.86): 0.3 µM; Activity (HCT-116): Active
O=C(Nc1cc(F)cc2cccnc12)c1cnc(N2CCC(F)(F)CC2)cn1 | 3.7 µM | –

Structure (SMILES) | IC50 (MIA PaCa-2 [1]) | further results
CN1CC2CC1CN2c1cnc(C(=O)Nc2cc(F)cc3cccnc23)cn1 (configuration not stated) | 0.1 µM | Retention_time [6]: 6.44 min; half-life [2]: 10.5 min; Retention_time [7]: 6.19 min; half-life [3]: > 60 min; Retention_time [8]: 6.23 min; Retention_time [9]: 6.22 min; Retention_time [10]: 6.22 min; Retention_time [11]: 6.23 min
O=C(Nc1cc(F)cc2cccnc12)c1cnc(N2CCNC(F)C2)cn1 (configuration not stated) | 3.4 µM | –
CN(NC(=O)CC(=O)NN(C)C(=S)c1ccccc1)C(=S)c1ccccc1 [ELESCLOMOL] | 0.02 µM | Activity (MIA PaCa-2 [12]): Active; IC50 [5]: 0.2 µM; IC50 (Panc02): 0.01 µM; IC50 (BXPC-3): 0.05 µM; IC50 (PANC-1): 0.03 µM; IC50 (SU.86.86): 0.02 µM
O=C(Nc1cc(F)cc2cccnc12)c1cnc(N2CCNC3(CC3)C2)cn1 | 0.8 µM | –
C[C@@H]1CN(c2cnc(C(=O)Nc3cc(F)cc4cccnc34)cn2)CCN1 | 0.5 µM | –
CN(C)C/C=C/C(=O)N1CCN(c2cnc(C(=O)Nc3cc(F)cc4cccnc34)cn2)CC1 | 4.4 µM | –
O=C(Nc1cc(F)cc2cccnc12)c1cnc(N2CC3CC2CS3(=O)=O)cn1 (configuration not stated) | 1.4 µM | –
Cc1cc(NC(=O)c2cnc(N3C[C@@H]4[C@@H](N)[C@@H]4C3)cn2)c2ncccc2c1 | 0.5 µM | half-life [2]: > 60 min
CCN(CC)C1CCN(c2cnc(C(=O)Nc3cc(F)cc4cccnc34)cn2)CC1 | 0.5 µM | –
Cc1cc(NC(=O)c2cnc(N3CCC4(CC3)CO[C@@H](C)[C@H]4N)cn2)c2ncccc2c1 | 1 µM | half-life [2]: 11.7 min
N[C@@H]1CCCC12CCN(c1cnc(C(=O)Nc3cc(F)cc4cccnc34)cn1)CC2 | 1.5 µM | –
NC1CC2(C1)CN(c1cnc(C(=O)Nc3cc(F)cc4cccnc34)cn1)C2 | 5.5 µM | –
N[C@H]1CN(c2cnc(C(=O)Nc3cc(F)cc4cccnc34)cn2)C[C@H]1F | 0.3 µM | half-life [2]: > 60 min; half-life [3]: > 60 min
CC1CNCCCN1c1cnc(C(=O)Nc2cc(F)cc3cccnc23)cn1 (configuration not stated) | 1.1 µM | –
CC1(C)CN(c2cnc(C(=O)Nc3cc(F)cc4cccnc34)cn2)CCN1 | 0.3 µM | –
Cc1cc(NC(=O)c2ccc(N3CCN(C)CC3)cc2)c2ncccc2c1 | 25.8 µM | –
NC1CC2(CCN(c3cnc(C(=O)Nc4cc(F)cc5cccnc45)cn3)CC2)C1 | 3 µM | –
O=C(Nc1cc(F)cc2cccnc12)c1cnc(N2CCC(N3CCCC3)CC2)cn1 | 0.5 µM | –
O=C(Nc1cc(F)cc2cccnc12)c1cnc(N2CCNC(C(F)(F)F)C2)cn1 (configuration not stated) | 0.8 µM | –
O=C(Nc1cc(F)cc2cccnc12)c1cnc(N2CCC(O)(C(F)(F)F)CC2)cn1 | 2.1 µM | –
O=C(Nc1cc(F)cc2cccnc12)c1cnc(N2CCOCC2)cn1 | 1 µM | –
O=C(Nc1cc(F)cc2cccnc12)c1cnc(N2CCC(F)C2)cn1 (configuration not stated) | 2.8 µM | –
CN1CCN(c2cnc(C(=O)Nc3cc(F)cc4cccnc34)cn2)CC1 | 0.7 µM | –
O=C(Nc1cc(F)cc2cccnc12)c1cnc(N2CCn3c(nnc3C(F)(F)F)C2)cn1 | 4.1 µM | –
N[C@@H]1CCN(c2cnc(C(=O)Nc3cc(F)cc4cccnc34)cn2)C[C@@H]1F | 1.1 µM | –
CN1C2CCC1CN(c1cnc(C(=O)Nc3cc(F)cc4cccnc34)cn1)C2 | 0.4 µM | half-life [2]: 13.5 min; half-life [3]: > 60 min
Cc1cc(NC(=O)c2cnc(N3CCNCC3)cn2)c2ncccc2c1 | 0.9 µM | half-life [2]: 4 min
